“Also recorded” adds a separate entry of the source.
Tests used:
[1] = system: spinal cord dorsal hemisection; test: Functional recovery from spinal cord injury (BBB test, rotarod test); type: in vivo, mouse
Procedure: Male Swiss-CD1 mice (8-10 week-old) were anesthetized with a mixture of ketamine and xylazine. The spinal cord had been exposed by making a midline incision of the skin, and by retracting the paravertebral muscles. A laminectomy was performed at the T7-T8 level and the spinal cord exposed. Using iridectomy scissors, a bilateral dorsal hemisection, transecting left and right dorsal finiculus, the dorsal horns, but sparing most parts of the ventral fimiculus, was performed, resulting in a complete transection of the dorsomedial main Cortico Spinal Tract (CST). For the series of mice receiving the peptides a Surgicoll pledget saturated with 10 μl of either p65 or reverse p65 (10 μM) peptides was applied over the transection site and covered with petroleum jelly to prevent diffusion. All inside muscle layer were sutured using fine thread. Skin was sutured using surgical staples. […]
Functional evaluation of the animals was performed at day (D) D1, D4, D7, D14, D21, D28, D35, during the first week following the spinal cord lesion and then on a weekly basis until D35, by two different observers blinded to group identity. Locomotor recovery was evaluated using the BBB test (Basso, Beattie and Bresnahan test; Basso et al., Restor. Neurol. Neurosci, 2002, 5, 189-218). […]

[2] = system: subventricular zone explants (neuronal precursors); test: Subventricular zone (SVZ) explant culture: cell migration in vitro; type: cell-based, mouse; details: 0.4 μM peptide
[3] = system: chick retina axons; test: Intravitreal injection in chick embryo, retinal whole mount: axon fasciculation and guidance in vivo; details: injected into chicken embryo eyes at E3, retina observed at E9
Procedure: The dashed rectangle indicates the area from which photographs were taken. Arrows point toward the optic fissure. Axons of E9 chick retina injected at E3 with the reverse peptide (C,F) or the p65 peptide (D,G,E,H). Arrowheads show examples of axons that leave their fascicle and run perpendicularly to it.
Injections were performed as described in Monnier et al. (Developmental Biology, 2001, 229, 1-14). Briefly, a 2×2 cm window was cut into the shell over E3 chick embryos. One μl of Fast green with 10 mM of p65 or reverse peptide was injected into the right eye vitreous body using a capillary. After a five-days incubation at 37° C., (E8) retinae were dissected, spread onto nitrocellulose filters (MILIPORE), and fixed with 4% paraformaldehyde solution in PBS. Two small DiI (1,1′-dioctadecyl-3,3,3′,3′-tetramethylindocarbocyanine perchlorate) crystals were applied dorsally to the optic fissure. Retinae were stored in the dark at 37° C. for 10 days until the dye reached the axonal growth cones in the fissure, mounted in glycerol:PBS (9:1, v:v) and analysed using confocal microscopy.

[4] = system: Mouse dorsal root ganglion explants (E13.5); test: Dorsal root ganglion explant culture: neurite outgrowth and fasciculation; type: cell-based
Procedure: E13.5 DRGs were dissected out from mice embryos in HBSS medium and seeded on glass coverslips coated with polylysine or with peptides linked to BSA. Explants were cultured in the presence or the absence of the peptides under soluble form (40 μM) in two ml of neurobasal medium (DMEM/Ham's F12, 3:1 (V/V), GIBCO, buffered with 20 mM Hepes), supplemented as described in Faivre-Sarrailh et al., J. Cell. Sci., 1999, 18, 3015-3027 and Chazal et al., J.Neurosci., 2000, 20, 1446-1457.
Fixed DRGs (Dorsal Root ganglia) explants and sections were incubated at 4° C. respectively 2 hr with an anti-neurofilament (SMI-31, dilution 1:800, STERNBERGER MONOCLONALS) and overnight with an anti-PSA antibody (dilution 1:200, Rougon et al, J. Cell. Biol., 1986, 103, 2429-2437). Revelation was performed by 1 hr incubation with the corresponding fluorescent-labeled secondary antibody (Goat anti-mouse IgM or IgG conjugated with texas red, IMMUNOTECH)
After 48 h in culture, explants were examining directly (SVZ) or after overnight fixation with a 4% paraformaldehyde solution in PBS and immunostaining (DRGs). Observation was done using 2, 5×, 5×, 10× and 32× objectives (Axiovert 35M, ZEISS). Images were collected with a video camera (Cool View, PHOTONIC SCIENCE) and analysed using image-processing software (Visiolab1000, BIOCOM). Mean migration distance (calculated on five different experiments, including at least five explants per condition) or mean length of the longest neurite (calculated on two different experiments, including at least eight explants per condition), was the distance in micrometers between the explant edge and the border of the cell migration front. Four measurements were performed for each explant. The significance of the differences between the control and the different experimental conditions was calculated by Student's t test.
Mouse dorsal root ganglion explants (E13.5) were cultured in the presence of p65 and p66 cyclic mimetic peptides, either in soluble form or coated on the microplates as BSA conjugates. Cells cultured in the absence of peptides or in the presence of reverse peptides (coated or in soluble form) were used as controls.

[5] = system: MenB anti-PSA antibody; test: Competitive binding to PSA-NCAM expressing cells (MenB)
Procedure: FIGS. 12B, 12C and 12D: competitive binding to PSA-NCAM expressing cells. B: pre-incubation of p65 (1 mM) or p66 (1 mM) with MenB anti-PSA antibody. C: 30H12 anti-PSA antibody without peptide. D: pre-incubation of p65 (1 mM) or p66 (1 mM) with 30H12 anti-PSA antibody.
The specificity of p65 and p66 peptides was tested in a competition assay using anti-PSA antibodies and PSA-NCAM expressing cells. […] The binding specificity was examined in greater detail by testing peptide recognition by another anti-PSA mononclonal antibody (MenB). […] Thus, p65 and p66 mimotopes appear to be specific for a unique (idiotypic) determinant.

[6] = peptide in coated form (BSA conjugate)
[7] = peptide in soluble form (40 μM), versus controls

CSSVTAWTTGCG [p65] was tested. Which “Rotarod test (fine motor coordination)” value ([1]; D35) did it give?
Its value is “beneficial effect on recovery”.

And the “BBB score (locomotor recovery)” value ([1]; versus p65-reverse controls, starting from D14 post-injury, 10 μl of 10 μM peptide at lesion)?
The value was “significantly higher”.

And the “Increase in the rate of migration of the neuronal precursors compared with the control without peptide” value [2]?
Its value is “+40%”.

And the “Axon guidance and fasciculation in retina in vivo” value [3]?
Its value is “axons guidance and fasciculation defects”.

And the Fasciculation [4, 6]?
The Fasciculation was “opposite effect on fasciculation”.

What about the Neurite outgrowth [4, 6] of the same sequence?
The Neurite outgrowth was “no effect on neurite outgrowth; also recorded: no significant increase”.

And the Axonal growth [4, 7]?
Its Axonal growth is “significant increase in axonal growth”.

What about the “Fasciculation of axon bundles” value [4, 7] of the same sequence?
The value was “clear defasciculation of axon bundles”.

What about the “Increase of neurite outgrowth compared to the controls” value ([4]; peptide in soluble form, mean length of the longest neurite) of the same sequence?
The value was 34%.

What about the “Recognition of PSA-NCAM by MenB after pre-incubation with peptide” value ([5]; FIG. 12C) of the same sequence?
Its value is “did not prevent recognition of PSA-NCAM”.

And the “Antibody specificity of peptide binding (30H12 versus MenB)” value ([5]; in words)?
The value was “bind only to 30H12”.

— patent US7417025B2, “Use of poly-α2,8-sialic acid mimetic peptides to modulate NCAM functions” (Centre National de la Recherche Scientifique, priority 2002, dated 2008)
